Earlier results as cited in US8901128B2, “Pharmaceutical compositions of ranolazine” (Lupin Limited, priority 2009, dated 2014).

Tests used:
[1] = low pH that occurs in the stomach
[2] = test system: humans suffering from angina; details: administered as an IR formulation; 120 mg three times daily
[3] = in vivo

solubility [1]: relatively high | plasma half-life [3]: relatively short
Structure (SMILES): COc1ccccc1OCC(O)CN1CCN(CC(=O)Nc2c(C)cccc2C)CC1 (racemic) [ranolazine, (±)-N-(2,6-dimethylphenyl)-4-[2-hydroxy-3-(2-methoxyphenoxy)-propyl]-1-piperazineacetamide]
antianginal and anti-ischemic efficacy [2]: ineffective
